From US9663523B2, “BET protein-inhibiting 5-aryltriazoleazepines” (BAYER PHARMA AKTIENGESELLSCHAFT, priority 2012, dated 2017)

What was measured:
MDA-MB-231 cells = test: Cell proliferation (alamarBlue), MDA-MB-231; type: cell-based; conditions: Homo sapiens, mammary carcinoma cell line, 96 hours incubation
Procedure: (§1) The ability of the compounds according to the invention to inhibit the proliferation of various cell lines was determined.
(§2) Cell viability was determined by means of the alamarBlue® reagent (Invitrogen). The cells were sown at different densities (MOLM-13, LAPC-4, MOLP-8 and MDA-MB-231: 4000 cells/well; B16F10: 400 cells/well) in 100 μl of growth medium on 96-well microtitre plates. After overnight incubation at 37° C., the fluorescence values (CI values) were determined. The plates were then treated with various substance dilutions and incubated at 37° C. for 96 hours (MOLM-13, MDA-MB-231 and B16F10 cells), 120 hours (MOLP-8 cells) or 168 hours (LAPC-4 cells). Subsequently, the fluorescence values were determined (CO values). For the data analysis, the CI values were subtracted from the CO values and the results were compared between cells which had been treated with various dilutions of the substance or only with buffer solution.
(§3) The compounds according to the invention were tested in the cell lines in Table 2, which represent the indications specified by way of example:
(§4) The indications corresponding to the different cell lines can be found in Table 2.

MOLP-8 cells = test: Cell proliferation (alamarBlue), MOLP-8; type: cell-based; conditions: Homo sapiens, multiple myeloma cell line, 120 hours incubation
Procedure: as §1
as §2, with “values).” for “values). For the data analysis, the CI values were subtracted from the CO values and the results were compared between cells which had been treated with various dilutions of the substance or only with buffer solution.”
as §3, §4

LAPC-4 cells = test: Cell proliferation (alamarBlue), LAPC-4; type: cell-based; conditions: Homo sapiens, LAPC4; prostate carcinoma (androgen receptor-positive) cell line, 168 hours incubation
Procedure: as §1
as §2, with “values).” for “values). For the data analysis, the CI values were subtracted from the CO values and the results were compared between cells which had been treated with various dilutions of the substance or only with buffer solution.”
as §3, §4

MOLM-13 cells = test: Cell proliferation (alamarBlue), MOLM-13; type: cell-based; conditions: Homo sapiens, acute myeloid leukaemia cell line, 96 hours incubation
Procedure: as §1, §2, §3, §4

B16F10 cells = test: Cell proliferation (alamarBlue), B16F10; type: cell-based; conditions: Mus musculus, B16-F10; melanoma cell line, 96 hours incubation
Procedure: as §1, §2, §3, §4

[1] = target: BRD4(1) (amino acids 44-168) (Homo sapiens (Human), UniProt O60885); test: BRD4 binding strength, TR-FRET (HTRF) assay of BRD4(1) / acetylated histone H4 peptide interaction; conditions: inhibition of BRD4(1)/Ac-H4 peptide interaction
Description: To assess the BRD4 binding strength of the compounds according to the invention, the ability thereof to inhibit the interaction between BRD4 and acetylated histone H4 in a dose-dependent manner was quantified. For this purpose, a time-resolved fluorescence resonance energy transfer (TR-FRET) assay was used, which measures the binding between N-terminally His6-tagged BRD4(1) (amino acids 44-168) and a synthetic acetylated histone H4 (Ac-H4) peptide with sequence […]-biotin. The recombinant BRD4 protein produced in-house according to Filippakopoulos et al., Cell, 2012, 149:214-231 was expressed in E. coli and purified by means of (Ni-NTA) affinity and (Sephadex G-75) size exclusion chromatography. The Ac-H4 peptide can be purchased, for example, from Biosyntan (Berlin, Germany). […] For this purpose, 100-fold concentrated solutions in DMSO were prepared by serial dilutions (1:3.4) of a 2 mM stock solution into a clear, 384-well microtitre plate (Greiner Bio-One, Frickenhausen, Germany). From this, 50 nl were transferred into a black test plate (Greiner Bio-One, Frickenhausen, Germany). […] This was followed by a 10-minute incubation step at 22° C. for the pre-equilibration of putative complexes between BRD4 and the substances. Subsequently, 3 μl of a solution of 1.67 times the concentration (in assay buffer) consisting of Ac-H4 peptide (83.5 nM) and TR-FRET detection reagents [16.7 nM anti-6His-XL665 and 3.34 nM streptavidin cryptate (both from Cisbio Bioassays, Codolet, France), and 668 mM potassium fluoride (KF)] were added. The mixture was then incubated in the dark at 22° C. for one hour and then at 4° C. overnight. The formation of BRD4/Ac-H4 complexes was determined by the measurement of the resonance energy transfer from the streptavidin-Eu cryptate to the anti-6His-XL665 antibody present in the reaction. […] The ratio of the emissions at 665 nm and at 622 nm was taken as an indicator of the amount of BRD4/Ac-H4 complexes formed.

SMILES | IC50 (MDA-MB-231 cells) [µM] | IC50 (MOLP-8 cells) [µM] | IC50 (LAPC-4 cells) [µM] | IC50 (MOLM-13 cells) [µM] | IC50 (B16F10 cells) [µM] | IC50 [1] [µM]
Cc1nnc2n1-c1ccccc1C(c1ccc(Cl)cc1)=CC2CC(=O)N1CC2(COC2)C1 (stereo in doubt) [Example 4, (−)-2-[(4R)-6-(4-chlorophenyl)-1-methyl-4H-[1,2,4]triazolo[4,3-a][1]benzazepin-4-yl]-1-(2-oxa-6-azaspiro[3.3]hept-6-yl)ethanone] | 2.37 | 0.74 | 0.66 | 0.36 | 0.55 | 0.13
Cc1nnc2n1-c1ccccc1C(c1ccc(Cl)cc1)=CC2Cc1nc(C2CC2)no1 (stereo in doubt) [Example 37, (−)-(4R)-6-(4-Chlorophenyl)-4-[(3-cyclopropyl-1,2,4-oxadiazol-5-yl)methyl]-1-methyl-4H-[1,2,4]triazolo[4,3-a][1]benzazepine] | 0.38 | – | 0.31 | 0.33 | 0.22 | 0.05
Cc1nnc(CC2C=C(c3ccc(Cl)cc3)c3ccccc3-n3c(C)nnc32)o1 (stereo in doubt) [Example 38, (−)-(4R)-6-(4-chlorophenyl)-1-methyl-4-[(5-methyl-1,3,4-oxadiazol-2-yl)methyl]-4H-[1,2,4]triazolo[4,3-a][1]benzazepine] | 0.11 | 0.045 | 0.04 | 0.12 | 0.06 | 0.02
CCNC(=O)CC1C=C(c2ccc(Cl)cc2)c2ccccc2-n2c(C)nnc21 (stereo not drawn) [Example 12, 2-[6-(4-chlorophenyl)-1-methyl-4H-[1,2,4]triazolo[4,3-a][1]benzazepin-4-yl]-N-ethylacetamide] | 0.48 | – | 0.08 | 0.27 | 0.23 | 0.13
Cc1nnc2n1-c1ccccc1C(c1ccc(Cl)cc1)=CC2CC(=O)N1CCOCC1 (stereo not drawn) [Example 14, 2-[6-(4-chlorophenyl)-1-methyl-4H-[1,2,4]triazolo[4,3-a][1]-benzazepin-4-yl]-1-(morpholin-4-yl)ethanone] | 1.01 | – | 0.21 | 0.46 | 0.41 | 0.31
Cc1nnc2n1-c1ccccc1C(c1ccc(Cl)cc1)=CC2CC(=O)N1CC(F)C1 (stereo not drawn) [Example 16, 2-[6-(4-chlorophenyl)-1-methyl-4H-[1,2,4]triazolo[4,3-a][1]benzazepin-4-yl]-1-(3-fluoroazetidin-1-yl)ethanone] | 1.04 | – | 0.26 | 0.53 | 0.46 | 0.22
Cc1nnc2n1-c1ccccc1C(c1ccc(Cl)cc1)=C[C@H]2CC(=O)N1CC2(CCS2(=O)=O)C1 [Example 19, (−)-2-[(4R)-6-(4-chlorophenyl)-1-methyl-4H-[1,2,4]triazolo[4,3-a][1]benzazepin-4-yl]-1-(1,1-dioxido-1-thia-6-azaspiro[3.3]hept-6-yl)ethanone] | 0.38 | 0.19 | 0.17 | 0.15 | 0.16 | –
Cc1nnc2n1-c1ccccc1C(c1ccc(Cl)cc1)=CC2CC(=O)Nc1ccc2c(c1)CC(=O)N2 (stereo not drawn) [Example 20, 2-[6-(4-chlorophenyl)-1-methyl-4H-[1,2,4]triazolo[4,3-a][1]benzazepin-4-yl]-N-(2-oxo-2,3-dihydro-1H-indol-5-yl)acetamide] | 0.98 | – | 0.14 | 0.54 | 0.35 | 0.24
Cc1nnc2n1-c1ccccc1C(c1ccc(Cl)cc1)=CC2CC(=O)N1C2CCC1CC(=O)C2 (stereo not drawn) [Example 22] | 2.9 | – | 0.21 | 1.73 | 0.84 | 0.34
Cc1nnc2n1-c1ccccc1C(c1ccc(Cl)cc1)=CC2CC(=O)N1CC(Oc2ccccc2)C1 (stereo not drawn) [Example 24, 2-[6-(4-chlorophenyl)-1-methyl-4H-[1,2,4]triazolo[4,3-a][1]benzazepin-4-yl]-1-(3-phenoxyazetidin-1-yl)ethanone] | 2.53 | – | 0.55 | 2.94 | 1.05 | 0.22
Cc1nnc2n1-c1ccccc1C(c1ccc(Cl)cc1)=C[C@H]2CC(=O)N1CC(Oc2ccccc2)C1 [Example 25, (−)-2-[(4R)-6-(4-chlorophenyl)-1-methyl-4H-[1,2,4]triazolo[4,3-a][1]benzazepin-4-yl]-1-(3-phenoxyazetidin-1-yl)ethanone] | 1.33 | 0.59 | 0.17 | 1.13 | 0.49 | 1.4
Cc1nnc2n1-c1ccccc1C(c1ccc(Cl)cc1)=CC2CC(=O)N1CCC(=O)C1 (stereo not drawn) [Example 26, 1-{[6-(4-chlorophenyl)-1-methyl-4H-[1,2,4]triazolo[4,3-a][1]benzazepin-4-yl]acetyl}pyrrolidin-3-one] | 1.36 | 0.38 | 0.31 | 0.83 | 0.61 | 0.04
Cc1nnc2n1-c1ccccc1C(c1ccc(Cl)cc1)=C[C@H]2CC(=O)N1CCC(=O)C1 [Example 27, (−)-1-{[(4R)-6-(4-chlorophenyl)-1-methyl-4H-[1,2,4]triazolo[4,3-a][1]benzazepin-4-yl]acetyl}pyrrolidin-3-one] | 0.71 | – | 0.18 | 0.25 | 0.34 | 0.11
Cc1nnc2n1-c1ccccc1C(c1ccc(Cl)cc1)=CC2CC(=O)N1CCC2(CCCC2)CC1 (stereo not drawn) [Example 28, 1-(8-azaspiro[4.5]dec-8-yl)-2-[6-(4-chlorophenyl)-1-methyl-4H-[1,2,4]triazolo[4,3-a][1]benzazepin-4-yl]ethanone] | > 10 | 6.3 | 1.2 | > 10 | 7.05 | 1.4
Cc1nnc2n1-c1ccccc1C(c1ccc(Cl)cc1)=CC2CC(=O)N1CCS(=O)(=O)C1 (stereo not drawn) [Example 30, 2-[6-(4-chlorophenyl)-1-methyl-4H-[1,2,4]triazolo[4,3-a][1]benzazepin-4-yl]-1-(1,1-dioxido-1,3-thiazolidin-3-yl)ethanone] | 1.13 | – | 0.19 | 0.85 | 0.49 | 0.08
Cc1nnc2n1-c1ccccc1C(c1ccc(Cl)cc1)=C[C@H]2CC(=O)N1CCS(=O)(=O)C1 [Example 31, (−)-2-[(4R)-6-(4-chlorophenyl)-1-methyl-4H-[1,2,4]triazolo[4,3-a][1]benzazepin-4-yl]-1-(1,1-dioxido-1,3-thiazolidin-3-yl)ethanone] | 0.56 | – | 0.08 | 0.19 | 0.22 | 0.18
Cc1nnc2n1-c1ccccc1C(c1ccc(Cl)cc1)=CC2CC(=O)N1CC2CCC(C1)O2 (stereo not drawn) [Example 32, 2-[6-(4-chlorophenyl)-1-methyl-4H-[1,2,4]triazolo[4,3-a][1]benzazepin-4-yl]-1-(8-oxa-3-azabicyclo[3.2.1]oct-3-yl)ethanone] | 2.04 | – | 0.25 | 1.81 | 0.8 | 0.39
